Measured values published in patent EP0029617A1, “Use of tertiary heterocyclic amines as synergists in pesticides; derivatives of cycloamines” (priority 1979, dated 1981).

Tested on: Kornkäfer (sitophilus granarius L)
Test: whole plant or invertebrate
Type: in vivo
Conditions: for mortality at 1000 µg/mL: read-out: Wirksamkeit in % Substanz allein
Method: Test von tertiären, heterocyclischen Aminen allein und im Gemisch mit Pyrethroiden an Kornkäfern (sitophilus granarius L)
In Petrischalen mit 15 cm Durchmesser mit talcumbepuderten Seitenwänden, um das Entfliehen der Kornkäfer zu verhindern, wurden jeweils 2 ml der Acetonlösungen einpipettiert und durch vorsichtiges Schwenken der Schalen gleichmäßig auf dem Boden verteilt. Nach dem Abdampfen des Acetons und dem Antrocknen der Beläge wurden in jede Schale 25 Kornkäfer eingezählt. Nach einer Stunde wurde jeweils ein 12,5 cm Rundfilter in die Schalen eingelegt, um den Käfern das Befreien aus der Rückenlage zu ermöglichen, was auf der glatten Glasplatte nicht möglich ist. Die lichtscheuen Käfer verkrochen sich mit Vorliebe unter die Filter und blieben so ständig mit den Wirkstoffbelägen in Kontakt. Alle Versuche liefen mit 3 Wiederholungen. Nach 3 h wurden die toten Käfer ausgezählt.
In der Tabelle 3 ist jeweils der Durchschnitt der Summe der 4 Einzelwerte angegeben. 25 tote Kornkäfer entsprechen dabei einer Wirkung von 100 %. Die Temperaturen betrugen während der Tests im Durchschnitt 19 - 21°C. Der synergistische Faktor berechnet sich analog wie in Beispiel 1 angegeben.
Die zu prüfenden tertiären, heterocyclischen Amine wurden - mit 1 mg Wirkstoff pro ml als Acetonlösungen angesetzt. Sie wurden im Verhältnis 1 : 1 mit Ripcord bzw. Talcord, die mit 0,01 mg Wirkstoff pro ml als Acetonlösung vorlagen, gemischt. Die Einzelkomponenten wurden im Verhältnis 1 : 1 mit Aceton gemischt.
Auch bei diesen Versuchen zeigten die Kontrollversuche stets bei Versuchsende eine Mortalität der Kornkäfer von 0 %.
Die synergistische Wirkung der tertiären, heterocyclischen Amine auf die Pyrethroide ist auch dann noch deutlich, wenn das Amin in wesentlich niederen Aufwandmengen eingesetzt wird, als dies in Beispiel 3 beschrieben wurde. Die Ergebnisse sind in der Tabelle 4 zusammengestellt. Dieser Versuch zeigt auch, daß Amine mit insektiziden Eigenschaften, wenn sie in Konzentrationen unterhalb ihres insektiziden Wirkungsbereiches eingesetzt werden, immer noch gute synergistische Wirkungen im Gemisch mit Pyrethroiden zeigen. Die Versuche wurden wie im Beispiel 3 beschrieben mit Kornkäfern durchgeführt. Es wurden lediglich die Konzentrationen der eingesetzten tertiären, heterocyclischen Amine geändert. Für die Verdünnung Pyrethroid : Amin = 1 : 10 wurde das Amin mit 0,1 mg Wirkstoff/ml Acetonlösung eingesetzt. Für die Verdünnung 1 : 5 mit 0,05 mg Wirkstoff/ml.

[1] = amine 1 mg/ml in Aceton mixed 1 : 1 with Aceton, 2 ml per dish, 25 weevils, dead counted after 3 h
[2] = amine 1 mg/ml mixed 1 : 1 with Ripcord 0,01 mg/ml, 3 h
[3] = amine 1 mg/ml mixed 1 : 1 with Talcord 0,01 mg/ml, 3 h
[4] = amine 1 mg/ml + Ripcord 0,01 mg/ml
[5] = amine 1 mg/ml + Talcord 0,01 mg/ml
[6] = Sitophilus granarius, amine 1 mg/ml in Aceton mixed 1 : 1 with Aceton, 2 ml per dish, 25 weevils, dead counted after 3 h
[7] = sitophilus granarius, in vivo, 3 h
[8] = Pyrethroid : Amin 1 : 10, amine 0,1 mg/ml, 180 min

| Molecule | Wirksamkeit in % Substanz allein [1] | Wirksamkeit in % Substanz +Ripcord [2] | Wirksamkeit in % Substanz +Talcord [3] | Synergistischer Faktor bei Ripcord (in vivo) | Synergistischer Faktor bei Talcord (in vivo) | Synergistischer Faktor bei Ripcord [4] | Synergistischer Faktor bei Talcord [5] | mortality at 1000 µg/mL [6] [%] | Wirksamkeit in % Substanz +Ripcord [7] | Wirksamkeit in % Substanz +Talcord [7] | Wirksamkeit in % Substanz allein [7] [%] | % Wirkung Substanz +Ripcord [8] | % Wirkung Substanz +Talcord [8] | mortality at 100 µg/mL (Sitophilus granarius, 3 h, amine 0,1 mg/ml (as for Pyrethroid : Amin 1 : 10), read-out: % Wirkung Substanz allein) [%] |
| --- | --- | --- | --- | --- | --- | --- | --- | --- | --- | --- | --- | --- | --- | --- |
| CCCCCC(C=O)CN1CCCCC1 (stereo not shown) [N-Piperidino-methyl-heptanal] | 0% | 49,2% | 60,0% | 1,56 | 6,19 | – | – | – | – | – | – | – | – | – |
| COc1cc(C=O)cc(CN2CCCCC2)c1O [3-N-(Piperidino-methyl)-4-hydroxid-5-methoxi-benz-aldehyd] | 0% | 88,0% | 40,0% | – | – | 2,79 | 4,12 | – | – | – | – | – | – | – |
| CCCCCCCCN1CCCC1 [N-1-Octyl-pyrrolidin] | – | 56,0% | 40,0% | – | – | 1,78 | 4,12 | 0 | – | – | – | – | – | – |
| CN(C)C(=O)N1CCCCCC1 [N-Dimethyl-carbamoyl-hexa-methylenimin] | 0% | 77,2% | 53,2% | – | – | 2,45 | 5,48 | – | – | – | – | – | – | – |
| CCOC(=O)C(c1ccccc1)C(C(=O)OCC)N1CCCC1 (stereo not shown) [Phenyl-N-pyrrolidin-bern-steinsäure-diethylester] | 0% | 88,0% | 26,8% | – | – | 2,79 | 2,76 | – | – | – | – | – | – | – |
| CC(C)=CCC/C(C)=C\CN1CCCCC1 [cis-8-N-Piperidino-2,6-di-methyl-octadien-(2,6)] | 0% | 68,0% | 26,8% | – | – | 2,16 | 2,76 | – | – | – | – | – | – | – |
| CCCCCCCCCCCCN1CCCCCC1 [N-1-Dodecyl-hexamethylenimin] | – | 64,0% | 24,0% | – | – | 1,59 | 1,03 | 14 | – | – | – | – | – | – |
| c1ccc(C(c2ccccc2)N2CCOCC2)cc1 [N-Diphenyl-methyl-morpholin] | 0% | 72,0% | 40,0% | – | – | 2,29 | 4,12 | – | – | – | – | – | – | – |
| CC(C)=CCCC(C)=CCN1CCCCC1 [N-1-Piperidino-3,7-dimethyl-octadien-(2,6)] | 0% | 88,0% | 81,2% | – | – | 2,79 | 8,37 | – | – | – | – | – | – | – |
| Oc1cc(CN2CCCCC2)c(O)cc1CN1CCCCC1 [2,5-Bis-(N-piperidino-methyl)-hydrochinon] | 0% | 56,0% | 24,0% | – | – | 1,78 | 2,47 | – | – | – | – | – | – | – |
| CCCCCCCCCC(C)N1CCCC1 (stereo not shown) [N-2-Undecyl-pyrrolidin] | – | 98,8% | 64,0% | – | – | 1,36 | – | 56 | – | – | – | – | – | – |
| CCCCCCCCCCCCCN1CCCC1 [N-1-Tridecyl-pyrrolidin] | – | 78,8% | 44,0% | – | – | 1,78 | 2,19 | 22.8 | – | – | – | – | – | – |
| CCCCOCCOCCN1CCCCCC1 [N-(2'-Butoxi-diethylether-(2))-hexamethylenimin] | – | – | – | 2,50 | 3,30 | – | – | – | 78,8% | 32,0% | 0 | – | – | – |
| c1ccc(OCCN2CCOCC2)cc1 [N-(2-Phenoxi-ethyl-(1))-morpholin] | 0% | 77,2% | 62,8% | – | – | 2,45 | 6,47 | – | – | – | – | – | – | – |
| C(CCCCCN1CCCCC1)CCCCN1CCCCC1 [1,10-N,N-Di-piperidino-decan] | 0% | 76,0% | 58,8% | – | – | 2,41 | 6,06 | – | – | – | – | – | – | – |
| 1-N-p-Menthen-piperidin | 0% | 60,0% | 72,0% | – | – | 1,90 | 7,42 | – | – | – | – | – | – | – |
| CCOC(=O)C(CC)N1CCOCC1 (stereo not shown) [2-N-Morpholino-buttersäure-ethylester] | 0% | 49,2% | 32,0% | – | – | 1,56 | 3,30 | – | – | – | – | – | – | – |
| CCCCCCCCCCCN1CCCCCC1 [N-1-Undecyl-hexamethylenimin] | – | 73,1% | 81,2% | – | – | – | – | 0 | – | – | – | 92,0% | 73,2% | 0 |
| CCOCCN1CCCC1 [N-1-(1'-Ethoxiethyl-(2))-pyrrolidin] | 0% | 70,0% | 0% | – | – | 2,22 | – | – | – | – | – | – | – | – |
| CCOC(=O)C(CC)N1CCCCC1 (stereo not shown) [2-N-Piperidino-buttersäure-ethylester] | 0% | 61,2% | 52,0% | – | – | 1,94 | 5,36 | – | – | – | – | – | – | – |
| CCCCCN1CCOCC1 [N-1-Pentyl-morpholin] | – | 88,0% | 37,2% | – | – | 2,79 | 3,83 | 0 | – | – | – | – | – | – |
| CCCCOCCOCCN1CCCC1 [N-1-(2'-Butoxi-diethyl-ether-(2))-pyrrolidin] | – | – | – | 2,47 | – | – | – | – | 78,0% | 8,9% | 0 | – | – | – |
| c1ccc(OCCN2CCCCC2)cc1 [N-2-Phenoxi-ethyl-(1)-piperidin] | 4,0% | 84,0% | 68,0% | – | – | 2,54 | 6,60 | – | – | – | – | – | – | – |
| CCCCCCCCN1CCCCC1 [N-1-Octyl-piperidin] | – | 54,8% | 12,0% | – | – | 1,74 | 1,24 | 0 | – | – | – | – | – | – |
